Test results reported in patent US10501479B2, “Benzenesulfonyl-asymmetric ureas and medical uses thereof” (HELSINN HEALTHCARE SA, priority 2016, dated 2019).
pEC50, pIC50: −log10 of the molar value. Like-named read-outs stand apart in the source and are kept apart here.

Columns and labels:
Assay type in all cases: cell-based
[1] = target: T1, recombinant human ghrelin receptor (HEK293/GRLN) (Homo sapiens, UniProt Q92847); test: Ghrelin inverse agonist potency (EC50) with IP-1 (IP-One HTRF) assay; conditions: IP-1 assay
T1 construct: expressed in transfected cells
How it was run: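 IP-1 accumulation was measured by HTRF (IP1-d2/Tb-cryptate, 620/665 nm read after 1 hour at room temperature) following 1 hour of compound treatment at 37° C. Cells were HEK293 stably expressing human ghrelin receptor, plated a day earlier on Matrigel. Inverse agonist potency was reported as EC50.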

[2] = target: T2, GHSR-1a (HEK293/GHSR1a cell line) (Homo sapiens, UniProt Q92847); test: Ghrelin agonist potency (EC50) with calcium FLIPR assay; conditions: for pEC50: HEK293/GHSR1a, read-out: Activity EC50/EMax: EC50 (ghrelin agonist potency)
T2 construct: expressed in transfected cells; host or cells: HEK293/GHSR1a cell line
Method: Evaluation of Ghrelin Agonist (EC50) and Antagonist Potency (IC50) with Calcium FLIPR Assay:
The intracellular calcium assay was carried out in a 384-well format FLIPR™ (Molecular Device) HEK293/GHSR1a cell line. Cells were seeded 24 hr prior to the experiments at an optimal density per well. Preincubation with selected calcium dye lasted for 30-60 min at room temperature or 37° C. Test compounds, dissolved in DMSO, were added at the appropriate time and incubated for 15 min followed by the addition of ghrelin with FlexStation or FLIPR. Relative fluorescence was monitored by the FLIPR™ Molecular Device. EC50 and IC50 values were estimated from dose-response data using GraphPad Prism software. To check for GHSR-1a agonism, the compound was added at t=20 sec. and the calcium response was followed for 2 minutes. To check for GHSR-1a antagonism, the compound and Ghrelin (10 nM) were added to the cells at t=20 sec. and the calcium response was measured for 2 minutes. The potency of the antagonist was calculated by its ability to reduce the ghrelin response. Dose-response curves were made for relevant antagonists.

[3] = target: T2, GHSR-1a (HEK293/GHSR1a cell line); test: Ghrelin antagonist potency (IC50) with calcium FLIPR assay, ghrelin 10 nM
How it was run: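 Calcium flux was followed 2 min by FLIPR in dye-loaded HEK293/GHSR1a cells. For antagonist IC50, compound and ghrelin (10 nM) were co-added at t=20 sec and inhibition of the ghrelin signal fitted; for agonist EC50, compound alone was added at t=20 sec and dose-response fitted.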

[4] = HEK293/GRLN, read-out: Activity EC50 (ghrelin inverse agonist potency)
[5] = HEK293/GHSR1a, ghrelin 10 nM, read-out: Activity IC50 (ghrelin antagonist potency)

T2 sequence (Q92847 whole entry): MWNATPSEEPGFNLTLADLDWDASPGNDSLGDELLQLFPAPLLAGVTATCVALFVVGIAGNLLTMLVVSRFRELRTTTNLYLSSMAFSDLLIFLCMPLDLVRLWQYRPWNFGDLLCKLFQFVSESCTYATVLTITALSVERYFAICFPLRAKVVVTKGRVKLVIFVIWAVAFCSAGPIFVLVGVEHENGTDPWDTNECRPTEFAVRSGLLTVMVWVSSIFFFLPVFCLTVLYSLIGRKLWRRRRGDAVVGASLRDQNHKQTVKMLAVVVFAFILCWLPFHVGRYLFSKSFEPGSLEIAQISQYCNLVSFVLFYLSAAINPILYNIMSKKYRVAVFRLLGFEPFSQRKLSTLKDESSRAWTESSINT
T1 sequence (Q92847 whole entry): as above

Compound | pEC50 ([1]; inverse agonist potency, read-out: EC50 (Activity)) | EC50/EMax: EC50 (Activity) ([2]; ghrelin agonist potency) [nM] | pIC50 ([3]; ghrelin antagonist potency, read-out: IC50 (Activity)) | pEC50 [1, 4] | pEC50 [2] | pIC50 [3, 5]
C[C@H](NC(=O)Nc1ccc(S(=O)(=O)Nc2ccc3[nH]cnc3c2)cc1)c1cccc(Cl)c1Cl [H1111, (S)-N-(1H-benzo[d]imidazol-5-yl)-4-(3-(1-(2,3-dichlorophenyl)ethyl)ureido) benzenesulfonamide] | 5.91 | > 30000 | 5.65 | – | – | –
CC(NC(=O)Nc1ccc(S(=O)(=O)Cc2ccc3c(c2)CNC3)cc1)c1cccnc1 (stereo not drawn) [H1273, 1-(4-((isoindolin-5-ylmethyl)sulfonyl)phenyl)-3-(1-(pyridin-3-yl)ethyl)urea] | – | – | – | 6.72 | < 4.52 | 5.99
CC(NC(=O)Nc1ccc(S(=O)(=O)Cc2ccc3c(c2)CNC3)cc1)c1ccncc1 (stereo not drawn) [H1274, 1-(4-((isoindolin-5-ylmethyl)sulfonyl)phenyl)-3-(1-(pyridin-4-yl)ethyl)urea] | – | – | – | 6.16 | < 4.52 | 5.80
CC(NC(=O)Nc1ccc(S(=O)(=O)Cc2ccc(CN3CCOCC3)cc2)cc1)c1ccccc1 (stereo not drawn) [H1275, 1-(4-((4-(morpholinomethyl)benzyl)sulfonyl)phenyl)-3-(1-phenylethyl)urea] | – | – | – | 6.51 | < 4.52 | 5.99
CC(NC(=O)Nc1ccc(S(=O)(=O)Cc2ccc3c(c2)CNC3)cc1)c1cc(N2CCOCC2)ccc1Cl (stereo not drawn) [H1283, 1-(1-(2-chloro-5-morpholinophenyl)ethyl)-3-(4-((isoindolin-5-ylmethyl)sulfonyl)phenyl)urea] | – | – | – | 6.70 | < 4.52 | 6.42
CC(NC(=O)Nc1ccc(S(=O)(=O)Cc2ccc3c(c2)CN(C)C3)cc1)c1cc(N2CCOCC2)ccc1Cl (stereo not drawn) [H1284, 1-(1-(2-chloro-5-morpholinophenyl)ethyl)-3-(4-(((2-methylisoindolin-5-yl)methyl)sulfonyl)phenyl)urea] | – | – | – | 6.43 | < 4.52 | 5.72
CC(NC(=O)Nc1ccc(S(=O)(=O)Cc2ccc3c(c2)CNC3)cc1)c1ccccn1 (stereo not drawn) [H1289, 1-(4-((isoindolin-5-ylmethyl)sulfonyl)phenyl)-3-(1-(pyridin-2-yl)ethyl)urea] | – | – | – | 6.79 | 6.83 | 6.27
CC(NC(=O)Nc1ccc(S(=O)(=O)Cc2cccc(CN)c2)cc1)c1ccccc1 (stereo not drawn) [H1290, 1-(4-((3-(aminomethyl)benzyl)sulfonyl)phenyl)-3-(1-phenylethyl)urea] | – | – | – | 6.14 | < 4.52 | 5.47
CC(NC(=O)Nc1ccc(S(=O)(=O)Cc2ccc3c(c2)C(=O)NC3)cc1)c1ccccc1 (stereo not drawn) [H1291, 1-(4-(((3-oxoisoindolin-5-yl)methyl)sulfonyl)phenyl)-3-(1-phenylethyl)urea] | – | – | – | 6.33 | < 4.52 | 5.92
CC(NC(=O)Nc1ccc(S(=O)(=O)Cc2ccc3c(c2)C(O)CC3)cc1)c1ccccc1 (stereo not drawn) [H1293, 1-(4-(((3-hydroxy-2,3-dihydro-1H-inden-5-yl)methyl)sulfonyl)phenyl)-3-(1-phenylethyl)urea] | – | – | – | 6.03 | < 4.52 | 5.25
COc1ccc(C(C)NC(=O)Nc2ccc3c(c2)C=C(c2ccc4c(c2)CN(Cc2ccccc2)C4)S3(=O)=O)cc1 (stereo not drawn) [H1296, 1-(2-(2-benzylisoindolin-5-yl)-1,1-dioxidobenzo[b]thiophen-5-yl)-3-(1-(4-methoxyphenyl)ethyl)urea] | – | – | – | 5.31 | 4.88 | < 4.52
COc1ccc(C(C)NC(=O)Nc2ccc(S(=O)(=O)Cc3ccc4c(c3)CNC4)cc2)cc1 (stereo not drawn) [H1298, 1-(4-((isoindolin-5-ylmethyl)sulfonyl)phenyl)-3-(1-(4-methoxyphenyl)ethyl)urea] | – | – | – | 6.94 | < 4.52 | 6.30
O=C(NCc1cccnc1)Nc1ccc(S(=O)(=O)Cc2ccc3c(c2)CNC3)cc1 [H1301, 1-(4-((isoindolin-5-ylmethyl)sulfonyl)phenyl)-3-(pyridin-3-ylmethyl)urea] | – | – | – | 5.94 | < 4.52 | 5.35
C[C@H](NC(=O)Nc1ccc(S(=O)(=O)Cc2ccc(CN3CCC(CO)C3)cc2)cc1)c1ccccc1 (stereo partly drawn) [H1314, 1-(4-((4-((3-(hydroxymethyl)pyrrolidin-1-yl)methyl)benzyl)sulfonyl)phenyl)-3-((S)-1-phenylethyl)urea] | – | – | – | – | < 4.52 | 5.51
C[C@H](NC(=O)Nc1ccc(S(=O)(=O)Nc2ccc3c(c2)CCN(C)C3)cc1)c1ccccc1 [H1315, (S)-N-(2-methyl-1,2,3,4-tetrahydroisoquinolin-6-yl)-4-(3-(1-phenylethyl)ureido) benzenesulfonamide] | – | – | – | – | < 4.52 | 6.52
CC(NC(=O)Nc1ccc(S(=O)(=O)Cc2cccc(CN3CCCC3)c2)cc1)c1ccccc1 (stereo not drawn) [H1318, 1-(1-phenylethyl)-3-(4-((3-(pyrrolidin-1-ylmethyl)benzyl)sulfonyl)phenyl)urea] | – | – | – | – | < 4.52 | 5.27
C[C@H](NC(=O)Nc1ccc(S(=O)(=O)Cc2ccc3c(c2)C2CCC3N2)cc1)c1ccccc1 (stereo partly drawn) [H1324, 1-((S)-1-phenylethyl)-3-(4-(((1,2,3,4-tetrahydro-1,4-epiminonaphthalen-6-yl)methyl)sulfonyl)phenyl)urea] | – | – | – | – | < 4.52 | 4.98
C[C@H](NC(=O)Nc1ccc(S(=O)(=O)Cc2ccc3c(c2)C2CCC3N2C)cc1)c1ccccc1 (stereo partly drawn) [H1325, 1-(4-(((9-methyl-1,2,3,4-tetrahydro-1,4-epiminonaphthalen-6-yl)methyl)sulfonyl)phenyl)-3-((S)-1-phenylethyl)urea] | – | – | – | – | < 4.52 | 5.42
C[C@H](NC(=O)Nc1ccc(S(=O)(=O)Cc2ccc(C3CCCN3)cc2)cc1)c1ccccc1 (stereo partly drawn) [H1328, 1-((S)-1-phenylethyl)-3-(4-((4-(pyrrolidin-2-yl)benzyl)sulfonyl)phenyl)urea] | – | – | – | – | < 4.52 | 6.26
CC(NC(=O)Nc1ccc(S(=O)(=O)Cc2ccc3nn(C)cc3c2)cc1)c1ccccc1 (stereo not drawn) [H1329, 1-(4-(((2-methyl-2H-indazol-5-yl)methyl)sulfonyl)phenyl)-3-(1-phenylethyl)urea] | – | – | – | – | < 4.52 | < 4.52
CCN(CC)c1ccc(CS(=O)(=O)c2ccc(NC(=O)NC(C)c3cccc(Cl)c3Cl)cc2)cc1 (stereo not drawn) [H1360, 1-(1-(2,3-dichlorophenyl)ethyl)-3-(4-((4-(diethylamino)benzyl)sulfonyl)phenyl)urea] | – | – | – | – | < 4.52 | < 4.52
CCN(CC)CCCS(=O)(=O)c1ccc(NC(=O)NC(C)c2cccc(Cl)c2Cl)cc1 (stereo not drawn) [H1361, 1-(1-(2,3-dichlorophenyl)ethyl)-3-(4-((3-(diethylamino)propyl)sulfonyl)phenyl)urea] | – | – | – | – | < 4.52 | 5.79
COc1cc(N2C[C@@H](C)N[C@@H](C)C2)ccc1NS(=O)(=O)c1ccc(NC(=O)N[C@H](C)c2cccc(Cl)c2Cl)cc1 [H1362, 4-(3-((R)-1-(2,3-dichlorophenyl)ethyl)ureido)-N-(4-((cis)-3,5-dimethylpiperazin-1-yl)-2-methoxyphenyl) benzenesulfonamide] | – | – | – | – | < 4.52 | 5.81
CC(NC(=O)Nc1ccc(S(=O)(=O)CC2CCCN(CC3CCCO3)C2)cc1)c1cccc(Cl)c1Cl (stereo not drawn) [H1375, 1-(1-(2,3-dichlorophenyl)ethyl)-3-(4-(((1-((tetrahydrofuran-2-yl)methyl)piperidin-3-yl)methyl)sulfonyl)phenyl)urea] | – | – | – | – | < 4.52 | < 4.52
CC(c1ccccc1)N(C)C(=O)Nc1ccc(S(=O)(=O)Cc2ccc3c(c2)CNC3)cc1F (stereo not drawn) [H1399, 3-(2-fluoro-4-((isoindolin-5-ylmethyl)sulfonyl)phenyl)-1-methyl-1-(1-phenylethyl)urea] | – | – | – | – | < 4.52 | 5.69
CC1Cc2cc(CS(=O)(=O)c3ccc(NC(=O)NC(C)c4cccc(Cl)c4Cl)c(F)c3)ccc2CN1 (stereo not drawn) [H1401, 1-(1-(2,3-dichlorophenyl)ethyl)-3-(2-fluoro-4-(((3-methyl-1,2,3,4-tetrahydroisoquinolin-6-yl)methyl)sulfonyl)phenyl)urea] | – | – | – | – | < 4.52 | 8.47
CC1Cc2cc(CS(=O)(=O)c3ccc(NC(=O)N(C)C(C)c4cccc(Cl)c4Cl)c(F)c3)ccc2CN1 (stereo not drawn) [H1402, 1-(1-(2,3-dichlorophenyl)ethyl)-3-(2-fluoro-4-(((3-methyl-1,2,3,4-tetrahydroisoquinolin-6-yl)methyl)sulfonyl)phenyl)-1-methylurea] | – | – | – | – | < 4.52 | 7.12
CC1Cc2cc(CS(=O)(=O)c3ccc(NC(=O)N[C@@H](C)c4cccc(Cl)c4Cl)cc3)ccc2CN1 (stereo partly drawn) [H1403, 1-((S)-1-(2,3-dichlorophenyl)ethyl)-3-(4-(((3-methyl-1,2,3,4-tetrahydroisoquinolin-6-yl)methyl)sulfonyl)phenyl)urea] | – | – | – | – | < 4.52 | 8.82
